From ChEMBL document CHEMBL1201862, “PubChem BioAssay data set” (2004)
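Grown in 96-well plates, cells were treated for 48 hours with each compound at five concentrations. Insufficient inhibition: endpoint recorded as highest concentration tested. GI50: concentration for 50% inhibition of growth.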 Calls of active or inactive are those of the source. Rule as the data show it: active = GI50 up to about 1.1 µM and inactive = higher.

Tests used:
Assay in all cases: NCI-60 cell line screen, 48 h
[1] = test system: A549
[2] = test system: COLO 205
[3] = test system: HCT-116
[4] = test system: HL-60
[5] = test system: M14
[6] = test system: OVCAR-8
[7] = test system: SF-268
[8] = test system: SF-295
[9] = test system: SNB-75
[10] = test system: SW-620
[11] = test system: U-251
[12] = test system: UO-31
[13] = test system: HCT-15
[14] = test system: K562
[15] = test system: MOLT-4
[16] = test system: SK-MEL-5
[17] = test system: HOP-92

Structure (SMILES)	GI50 [1]	GI50 [2]	GI50 [3]	GI50 [4]	GI50 [5]	GI50 [6]	GI50 [7]	GI50 [8]	GI50 [9]	GI50 [10]	GI50 [11]	GI50 [12]	GI50 [13] [µM]	GI50 [14]	GI50 [15]	GI50 [16]	GI50 [17]
CC1=C(O)/C(=C/C(C)CCC/C(C)=C/C=C/C(C)CCCc2ccoc2)OC1=O (configuration not stated)	27.2 µM (inactive)	35.3 µM (inactive)	> 10 µM (inactive)	24.7 µM (inactive)	36 µM (inactive)	34.4 µM (inactive)	26.7 µM (inactive)	31.9 µM (inactive)	25.2 µM (inactive)	33.3 µM (inactive)	37.8 µM (inactive)	69.2 µM (inactive)					
C[N+](C)(C)CC1CCCC(C[N+](C)(C)C)C1=NO (configuration not stated)	> 100 µM (inactive)	> 100 µM (inactive)	> 100 µM (inactive)		> 100 µM (inactive)	> 100 µM (inactive)		> 100 µM (inactive)	> 100 µM (inactive)	> 100 µM (inactive)	> 100 µM (inactive)	> 100 µM (inactive)	> 100	> 100 µM (inactive)	> 100 µM (inactive)	> 100 µM (inactive)	
CN(C)c1n/c(=N/c2ccc3c(c2)OCO3)ss1	44.6 µM (inactive)		49 µM (inactive)	19 µM (inactive)	> 100 µM (inactive)	72.1 µM (inactive)	47.6 µM (inactive)	> 100 µM (inactive)	9.71 µM (inactive)	74 µM (inactive)	37.6 µM (inactive)	27.2 µM (inactive)	40.4	34.8 µM (inactive)	22.4 µM (inactive)	55.3 µM (inactive)	56.5 µM (inactive)
O=C(c1ccccc1)c1cn(/N=C\c2ccccc2)c(=O)nc1-c1ccccc1	> 100 µM (inactive)	> 100 µM (inactive)	> 100 µM (inactive)		> 100 µM (inactive)	> 100 µM (inactive)	> 100 µM (inactive)	> 100 µM (inactive)	> 100 µM (inactive)	> 100 µM (inactive)	> 100 µM (inactive)	> 100 µM (inactive)	> 100	> 100 µM (inactive)	> 100 µM (inactive)	> 100 µM (inactive)	92.9 µM (inactive)
O=C1c2ccccc2C(=O)c2sc(Nc3cccc(Cl)c3)nc21	2.21 µM (inactive)	5.38 µM (inactive)	1.82 µM (inactive)	0.172 µM (active)	1.82 µM (inactive)	1.6 µM (inactive)	2.01 µM (inactive)	1.62 µM (inactive)	1.82 µM (inactive)	0.802 µM (active)	1.31 µM (inactive)	2.3 µM (inactive)	1.88	1.57 µM (inactive)	0.492 µM (active)	1.56 µM (inactive)	
CC1C[C@H](C)CC(C(O)CC2CC(=O)N(Cc3ccccc3)C(=O)C2)C1O (some centres not stated)	> 100 µM (inactive)	> 100 µM (inactive)	> 100 µM (inactive)	> 100 µM (inactive)	> 100 µM (inactive)	> 100 µM (inactive)	> 100 µM (inactive)	> 100 µM (inactive)	> 100 µM (inactive)	> 100 µM (inactive)	> 100 µM (inactive)	> 100 µM (inactive)		> 100 µM (inactive)	> 100 µM (inactive)		> 100 µM (inactive)
CSc1nc(NC2OCC(OC(C)=O)C(OC(C)=O)C2OC(C)=O)c2c(n1)OCC2=O (configuration not stated)	> 100 µM (inactive)	> 100 µM (inactive)	> 100 µM (inactive)	> 100 µM (inactive)	> 100 µM (inactive)	> 100 µM (inactive)	> 100 µM (inactive)	> 100 µM (inactive)	> 100 µM (inactive)	> 100 µM (inactive)	> 100 µM (inactive)	> 100 µM (inactive)	> 100	> 100 µM (inactive)	> 100 µM (inactive)	> 100 µM (inactive)	
CCn1c(SC(C)C(=O)c2c(C)n(C)n(-c3ccccc3)c2=O)nc2ccccc2c1=O (configuration not stated)	> 100 µM (inactive)	> 100 µM (inactive)	> 100 µM (inactive)	> 100 µM (inactive)	> 100 µM (inactive)	> 100 µM (inactive)	> 100 µM (inactive)	> 100 µM (inactive)	> 100 µM (inactive)		> 100 µM (inactive)	> 100 µM (inactive)	> 100		> 100 µM (inactive)	> 100 µM (inactive)	4.47 µM (inactive)
CN(C)CCCNc1ccc2ncn3c4ccccc4c(=O)c1c23		2.49 µM (inactive)	3.48 µM (inactive)	6.41 µM (inactive)	9.66 µM (inactive)	4.9 µM (inactive)	7.6 µM (inactive)	6.3 µM (inactive)	10.5 µM (inactive)	4.71 µM (inactive)	11.4 µM (inactive)	9.27 µM (inactive)	8.53	3.77 µM (inactive)	2.91 µM (inactive)		5.9 µM (inactive)
CCOc1ccc(/N=C\c2ccc3cc(C)ccc3n2)cc1	> 100 µM (inactive)	> 100 µM (inactive)		19.5 µM (inactive)	49.1 µM (inactive)	50.2 µM (inactive)	69 µM (inactive)	68.5 µM (inactive)	40.7 µM (inactive)	58.9 µM (inactive)	> 100 µM (inactive)	31 µM (inactive)	41.8	25.4 µM (inactive)	27.3 µM (inactive)	57.8 µM (inactive)	66.8 µM (inactive)
Cc1ccc(NC(=O)CC2C(=O)Nc3ccccc3[S+]2[O-])cc1C (configuration not stated)	> 100 µM (inactive)		49.2 µM (inactive)	41.7 µM (inactive)	> 100 µM (inactive)	34 µM (inactive)	75.2 µM (inactive)	> 100 µM (inactive)	> 100 µM (inactive)	66.4 µM (inactive)	44.3 µM (inactive)	42.1 µM (inactive)	> 100	91.8 µM (inactive)	25.5 µM (inactive)	73.8 µM (inactive)	26 µM (inactive)
Cn1cnnc1Sc1c([N+](=O)[O-])nc(-c2ccc([N+](=O)[O-])cc2)n1C	> 100 µM (inactive)	14.9 µM (inactive)	15.1 µM (inactive)		16.4 µM (inactive)	18.1 µM (inactive)	16.9 µM (inactive)	> 100 µM (inactive)	31.3 µM (inactive)	16.1 µM (inactive)	16.6 µM (inactive)	14.7 µM (inactive)		18 µM (inactive)	14.6 µM (inactive)	16.9 µM (inactive)	19.4 µM (inactive)
O/N=C1/C(=C/c2ccc3c(c2)OCO3)CCCC1C(NO)c1ccc2c(c1)OCO2 (configuration not stated)	29.9 µM (inactive)	25.4 µM (inactive)	17.3 µM (inactive)	15.9 µM (inactive)	19.5 µM (inactive)	24.6 µM (inactive)	28.2 µM (inactive)		27.2 µM (inactive)	30.8 µM (inactive)	20.8 µM (inactive)	23.4 µM (inactive)	32	24.9 µM (inactive)	16.9 µM (inactive)	17.4 µM (inactive)	
